Experimental data reported in patent US9253983B2, “Triazole compound and use thereof” (KUREHA CORPORATION, priority 2011, dated 2016).

How the values were obtained:
wheat [1] = assay: Growth inhibition (adverse effects) of seed treatment on wheat seeds; format: in vivo; conditions: wheat, 20 days after sowing
Experimental: A pot experiment was performed to evaluate the growth inhibition (adverse effects) caused by the seed treatment. Compound (1-1a) and Compound (1-2a), each of which was dissolved in DMSO to make up such a concentration that the seeds would be treated in treatment amount of 2 g to 200 g ai/100 kg seeds, were each applied to wheat seeds in a vial, and thereafter 8 wheat seeds were sowed in an 80-cm^2 pot. The pot was kept in a greenhouse with water supplied to its bottom. 20 days after the sowing, a growth measure of wheat was evaluated. A growth inhibition index was calculated based on the criteria shown by Table 10. In Table 10, a smaller growth inhibition index indicates a lesser adverse effect of growth inhibition caused by the treatment with the use of a plant disease controlling agent.

wheat [2] = assay: Necrosis (adverse effects) of seed treatment on wheat seeds; format: in vivo; conditions: 20 days after sowing
Experimental: A pot experiment was performed to evaluate necrosis (adverse effects) caused by the seed treatment. Compound (1-1a) and Compound (1-2a), each which was dissolved in DMSO to make up such a concentration that the seeds would be treated in treatment amount of 2 g to 200 g ai/100 kg seeds, were each applied to wheat seeds in a vial, and thereafter 8 wheat seeds were sowed in an 80-cm^2 pot. The pot was kept in a greenhouse with water supplied to its bottom. 20 days after the sowing, an extent of necrosis (percentage of necrotic surface area) of wheat was evaluated. A necrosis index was derived from the percentage of the necrotic surface area, based on the criteria shown by Table 13. In Table 13, a smaller necrosis index indicates a lesser adverse effect of necrosis caused by the treatment with the use of a plant disease controlling agent.

Phaeosphaeria nodorum = assay: Test 1 for antifungal effect, plate medium: P.n; format: cell-based; conditions: PDA plate medium
Experimental: (§1) Compound (1-1a) or Compound (1-2a) was dissolved in dimethyl sulfoxide, and the resulting solution was added to a PDA medium (potato dextrose-agar medium) at about 60° C. The medium and the solution were mixed thoroughly in a conical flask, poured into a petri dish, and allowed to solidify. In this way, a plate medium containing Compound (1-1a) or Compound (1-2a) at a certain concentration was prepared.
(§2) Meanwhile, test microorganisms cultured on a plate medium in advance were cut out with the use of a cork borer 4 mm in diameter, and were inoculated onto the compound-containing plate medium. After the inoculation, the microorganisms were cultured at their optimum growth temperatures (for example, refer to LIST OF CULTURES 1996 microorganisms 10th edition, Institute for Fermentation (foundation)) for 1 day to 7 days, and their growth was determined by measuring the diameter of their flora. The extent of growth of the microorganisms on the compound-containing plate medium was compared with that of microorganisms on a plate medium where no compound was added, and mycelial growth inhibition rate was calculated by the following equation: R=100(dc−dt)/dc where R is mycelial growth inhibition rate (%), dc is the flora diameter in untreated plate, and dt is the flora diameter in plate treated with the compound.
(§3) A larger antifungal index indicates a better antifungal effect.

Microdochium nivale = assay: Test 1 for antifungal effect, plate medium: M.n; format: cell-based; conditions: PDA plate medium
Experimental: as §1, §2, §3

Gibberella fujikuroi = assay: Test 1 for antifungal effect, plate medium: G.f; format: cell-based; conditions: PDA plate medium
Experimental: as §1, §2, §3

Rhizopus oryzae = assay: Test 1 for antifungal effect, plate medium: R.o; format: cell-based; conditions: PDA plate medium
Experimental: as §1, §2, §3

Sclerotinia sclerotiorum = assay: Test 1 for antifungal effect, plate medium: S.s; format: cell-based; conditions: PDA plate medium
Experimental: as §1, §2, §3

Botrytis cinerea = assay: Test 1 for antifungal effect, plate medium: B.c; format: cell-based; conditions: PDA plate medium
Experimental: as §1, §2, §3

Glomerella cingurata = assay: Test 1 for antifungal effect, plate medium: G.c; format: cell-based; conditions: PDA plate medium
Experimental: as §1, §2, §3

Ustilago nuda = assay: Test 2 for antifungal effect, plate medium: U.n; format: cell-based; conditions: PDA plate medium
Experimental: as §1, with “(1-1b)” for “(1-1a)”, “(1-2b)” for “(1-2a)”
(§4) Meanwhile, test microorganisms cultured on a plate medium in advance were cut out with the use of a cork borer 4 mm in diameter, and were inoculated onto the compound-containing plate medium. After the inoculation, the pathogens were cultured at their optimum growth temperatures (for example, refer to LIST OF CULTURES 1996 microorganisms 10th edition, Institute for Fermentation (foundation)) for 1 day to 7 days, and their growth was determined by measuring the diameter of their flora. The extent of growth of the pathogens on the compound-containing plate medium was compared with that of pathogens on a plate medium where no compound was added, and mycelial growth inhibition rate was calculated as in Experiment Example 10. Note that, in Experiment Example 11, controls used in the antifungal effect tests are Compound (1-1a) and Compound (1-2a) instead of Compound (1-1b) and Compound (1-2b), respectively.
(§5) The results were rated on a 1-to-5 scale as in Experiment Example 10.

Penicillium italicum = assay: Test 2 for antifungal effect, plate medium: P.i; format: cell-based; conditions: PDA plate medium
Experimental: as §1, with “(1-1b)” for “(1-1a)”, “(1-2b)” for “(1-2a)”
as §4, §5

Septoria tritici = assay: Test 2 for antifungal effect, plate medium: S.t; format: cell-based; conditions: PDA plate medium
Experimental: as §1, with “(1-1b)” for “(1-1a)”, “(1-2b)” for “(1-2a)”
as §4, §5

[3] = treatment amount 2 g ai/100 kg seeds
[4] = treatment amount 20 g ai/100 kg seeds
[5] = treatment amount 200 g ai/100 kg seeds

Question: Which results are given for `CC1(CCl)CCC(Cc2ccc(F)cc2)C1(O)Cn1cncn1` (single isomer, unassigned) [Compound (1-2a), (1,2-cis, 1,5-cis)-5-(4-fluorobenzyl)-2-chloromethyl-2-methyl-1-(1H-1,2,4-triazole-1-ylmethyl)cyclopentanol]?
Answer: Growth inhibition index (wheat [1]; [3]): 0 (50% or more); Growth inhibition index (wheat [1]; [4]): 0 (50% or more); Growth inhibition index (wheat [1]; [5]): 2 (Less than 40% but 30% or more); Necrosis index (wheat [2]; [3]): 0 (Less than 1%); Necrosis index (wheat [2]; [4]): 0 (Less than 1%); Necrosis index (wheat [2]; [5]): 0 (Less than 1%); Antifungal index (mycelial growth inhibition rate) (Phaeosphaeria nodorum; 0.16 mg/L): 1 (Less than 60%); Antifungal index (mycelial growth inhibition rate) (Phaeosphaeria nodorum; 0.31 mg/L): 2 (Less than 70% but not less than 60%); Antifungal index (mycelial growth inhibition rate) (Phaeosphaeria nodorum; 0.63 mg/L): 5 (90% or greater); Antifungal index (mycelial growth inhibition rate) (Phaeosphaeria nodorum; 1.25 mg/L): 5 (90% or greater); Antifungal index (mycelial growth inhibition rate) (Phaeosphaeria nodorum; 2.50 mg/L): 5 (90% or greater); Antifungal index (mycelial growth inhibition rate) (Microdochium nivale; 0.16 mg/L): 1 (Less than 60%); Antifungal index (mycelial growth inhibition rate) (Microdochium nivale; 0.31 mg/L): 1 (Less than 60%); Antifungal index (mycelial growth inhibition rate) (Microdochium nivale; 0.63 mg/L): 2 (Less than 70% but not less than 60%); Antifungal index (mycelial growth inhibition rate) (Microdochium nivale; 1.25 mg/L): 3 (Less than 80% but not less than 70%); Antifungal index (mycelial growth inhibition rate) (Microdochium nivale; 2.50 mg/L): 5 (90% or greater); Antifungal index (mycelial growth inhibition rate) (Gibberella fujikuroi; 0.16 mg/L): 4 (Less than 90% but not less than 80%); Antifungal index (mycelial growth inhibition rate) (Gibberella fujikuroi; 0.31 mg/L): 5 (90% or greater); Antifungal index (mycelial growth inhibition rate) (Gibberella fujikuroi; 0.63 mg/L): 5 (90% or greater); Antifungal index (mycelial growth inhibition rate) (Gibberella fujikuroi; 1.25 mg/L): 5 (90% or greater); Antifungal index (mycelial growth inhibition rate) (Gibberella fujikuroi; 2.50 mg/L): 5 (90% or greater); Antifungal index (mycelial growth inhibition rate) (Rhizopus oryzae; 0.16 mg/L): 1 (Less than 60%); Antifungal index (mycelial growth inhibition rate) (Rhizopus oryzae; 0.31 mg/L): 1 (Less than 60%); Antifungal index (mycelial growth inhibition rate) (Rhizopus oryzae; 0.63 mg/L): 3 (Less than 80% but not less than 70%); Antifungal index (mycelial growth inhibition rate) (Rhizopus oryzae; 1.25 mg/L): 5 (90% or greater); Antifungal index (mycelial growth inhibition rate) (Rhizopus oryzae; 2.50 mg/L): 5 (90% or greater); Antifungal index (mycelial growth inhibition rate) (Sclerotinia sclerotiorum; 0.16 mg/L): 5 (90% or greater); Antifungal index (mycelial growth inhibition rate) (Sclerotinia sclerotiorum; 0.31 mg/L): 5 (90% or greater); Antifungal index (mycelial growth inhibition rate) (Sclerotinia sclerotiorum; 0.63 mg/L): 5 (90% or greater); Antifungal index (mycelial growth inhibition rate) (Sclerotinia sclerotiorum; 1.25 mg/L): 5 (90% or greater); Antifungal index (mycelial growth inhibition rate) (Sclerotinia sclerotiorum; 2.50 mg/L): 5 (90% or greater); Antifungal index (mycelial growth inhibition rate) (Botrytis cinerea; 0.16 mg/L): 3 (Less than 80% but not less than 70%); Antifungal index (mycelial growth inhibition rate) (Botrytis cinerea; 0.31 mg/L): 5 (90% or greater); Antifungal index (mycelial growth inhibition rate) (Botrytis cinerea; 0.63 mg/L): 5 (90% or greater); Antifungal index (mycelial growth inhibition rate) (Botrytis cinerea; 1.25 mg/L): 5 (90% or greater); Antifungal index (mycelial growth inhibition rate) (Botrytis cinerea; 2.50 mg/L): 5 (90% or greater); Antifungal index (mycelial growth inhibition rate) (Glomerella cingurata; 0.16 mg/L): 5 (90% or greater); Antifungal index (mycelial growth inhibition rate) (Glomerella cingurata; 0.31 mg/L): 5 (90% or greater); Antifungal index (mycelial growth inhibition rate) (Glomerella cingurata; 0.63 mg/L): 5 (90% or greater); Antifungal index (mycelial growth inhibition rate) (Glomerella cingurata; 1.25 mg/L): 5 (90% or greater); Antifungal index (mycelial growth inhibition rate) (Glomerella cingurata; 2.50 mg/L): 5 (90% or greater); Antifungal index (mycelial growth inhibition rate) (Ustilago nuda; 0.04 mg/L): 1 (Less than 60%); Antifungal index (mycelial growth inhibition rate) (Ustilago nuda; 0.08 mg/L): 1 (Less than 60%); Antifungal index (mycelial growth inhibition rate) (Ustilago nuda; 0.16 mg/L): 1 (Less than 60%); Antifungal index (mycelial growth inhibition rate) (Ustilago nuda; 0.31 mg/L): 1 (Less than 60%); Antifungal index (mycelial growth inhibition rate) (Ustilago nuda; 0.63 mg/L): 1 (Less than 60%); Antifungal index (mycelial growth inhibition rate) (Ustilago nuda; 1.25 mg/L): 2 (Less than 70% but not less than 60%); Antifungal index (mycelial growth inhibition rate) (Penicillium italicum; 0.04 mg/L): 1 (Less than 60%); Antifungal index (mycelial growth inhibition rate) (Penicillium italicum; 0.08 mg/L): 1 (Less than 60%); Antifungal index (mycelial growth inhibition rate) (Penicillium italicum; 0.16 mg/L): 3 (Less than 80% but not less than 70%); Antifungal index (mycelial growth inhibition rate) (Penicillium italicum; 0.31 mg/L): 4 (Less than 90% but not less than 80%); Antifungal index (mycelial growth inhibition rate) (Penicillium italicum; 0.63 mg/L): 5 (90% or greater); Antifungal index (mycelial growth inhibition rate) (Penicillium italicum; 1.25 mg/L): 5 (90% or greater); Antifungal index (mycelial growth inhibition rate) (Septoria tritici; 0.04 mg/L): 1 (Less than 60%); Antifungal index (mycelial growth inhibition rate) (Septoria tritici; 0.08 mg/L): 1 (Less than 60%); Antifungal index (mycelial growth inhibition rate) (Septoria tritici; 0.16 mg/L): 1 (Less than 60%); Antifungal index (mycelial growth inhibition rate) (Septoria tritici; 0.31 mg/L): 1 (Less than 60%); Antifungal index (mycelial growth inhibition rate) (Septoria tritici; 0.63 mg/L): 1 (Less than 60%); Antifungal index (mycelial growth inhibition rate) (Septoria tritici; 1.25 mg/L): 3 (Less than 80% but not less than 70%)
